Article PMC9024521, “4-Heteroaryl Substituted Amino-3,5-Dicyanopyridines as New Adenosine Receptor Ligands: Novel Insights on Structure-Activity Relationships and Perspectives” (Pharmaceuticals, 2022)

Key:
hA2AAR = biological target: T1, hA2AAR (Homo sapiens, UniProt P29274); assay: Competition binding, [3H]ZM241385, hA2A CHO cell membranes; conditions: for Ki: displacement of [3H]ZM241385, hA2A CHO cells, mean ± SEM of four assays
T1 construct: host or cells: CHO cells
Method: (§1) CHO cells transfected with hA1, hA2A, hA2B and hA3 ARs (Perkin Elmer, Boston, MA, USA) were grown adherently and maintained in Dulbecco’s modified Eagle’s medium with nutrient mixture F12, containing 10% fetal calf serum, penicillin (100 U/mL), streptomycin (100 μg/mL), L-glutamine (2 mM) and geneticine (G418; 0.2 mg/mL), at 37 °C, in 5% CO2/95% air, until their use in cAMP assays. For membrane preparation, the culture medium was removed, and the cells were washed with phosphate-buffered saline and scraped off T75 flasks in ice-cold hypotonic buffer (5 mM Tris HCl, 1 mM EDTA, pH 7.4). The cell suspension was homogenized with a Polytron, centrifuged for 30 min at 40,000× g, at 4 °C, and the resulting membrane pellet was used for competition binding experiments.
(§2) All synthesized compounds were tested for their affinity to hA1, hA2A and hA3 ARs. Competition experiments to hA1AR were carried out by incubating 1 nM [^3H]-8-cyclopentyl-1,3-dipropylxanthine ([^3H]-DPCPX) with membrane suspension (50 μg of protein/100 μL) and different concentrations of the examined compounds at 25 °C for 90 min in 50 mM Tris HCl, pH 7.4. Non-specific binding was defined as binding in the presence of 1 μM DPCPX and was always <10% of the total binding. Inhibition experiments to hA2A ARs were performed by incubating the radioligand [^3H]-4-(-2-[7-amino-2-{2-furyl}{1,2,4}triazolo{2,3-a} {1,3,5}triazin-5-yl-amino]ethyl)phenol ([^3H]-ZM241385) (1 nM) with the membrane suspension (50 μg of protein/100 μL) and different concentrations of the examined compounds for 60 min, at 4 °C, in 50 mM Tris HCl (pH 7.4), 10 mM MgCl2. Non-specific binding was determined in the presence of ZM241385 (1 μM) and was about 20% of the total binding. Competition binding experiments to A3ARs were carried out by incubating the membrane suspension (50 μg of protein/100 μL) with 0.5 nM [^125I]-N6-(4-aminobenzyl)-N-methylcarboxamidoadenosine ([^125I]-ABMECA) in the presence of different concentrations of the examined compounds for an incubation time of 120 min, at 4 °C, in 50 mM Tris HCl (pH 7.4), 10 mM MgCl2, 1 mM EDTA. Non-specific binding was defined as binding in the presence of 1 μM ABMECA and was always <10% of the total binding. Bound and free radioactivity were separated by filtering the assay mixture through Whatman GF/B glass-fiber filters, using a Brandel cell harvester (Brandel Instruments, Unterföhring, Germany). The filter bound radioactivity was counted by Packard Tri Carb 2810 TR scintillation counter (Perkin Elmer).
(§3) The protein concentration was determined according to a Bio-Rad method, with bovine albumin as a standard reference. Inhibitory binding constant (Ki) values were calculated from those of IC50 according to the Cheng–Prusoff equation, Ki = IC50/(1 + [C*]/KD*), where [C*] is the concentration of the radioligand, and KD* its dissociation constant. Ki and IC50 values were calculated by non-linear regression analysis, using the equation for a sigmoid concentration-response curve (Graph-PAD Prism, San Diego, CA, USA).

hA1AR [1] = biological target: T2, hA1AR (Homo sapiens, UniProt P30542); assay: Competition binding, [3H]DPCPX, hA1 CHO cell membranes; conditions: displacement of [3H]DPCPX, hA1 CHO cells; mean ± SEM of four assays
T2 construct: host or cells: CHO cells
T2 sequence (P30542 1-326): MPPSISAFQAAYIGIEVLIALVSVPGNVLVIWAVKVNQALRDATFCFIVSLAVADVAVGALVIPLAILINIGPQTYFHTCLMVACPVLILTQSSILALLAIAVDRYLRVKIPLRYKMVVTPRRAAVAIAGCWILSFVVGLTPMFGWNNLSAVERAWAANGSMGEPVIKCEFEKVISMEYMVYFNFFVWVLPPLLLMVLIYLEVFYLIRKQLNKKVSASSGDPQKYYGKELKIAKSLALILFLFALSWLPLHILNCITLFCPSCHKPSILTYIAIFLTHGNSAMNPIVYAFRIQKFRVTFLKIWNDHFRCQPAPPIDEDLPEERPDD
Method: as §1, §2, §3

hA2B AR [2] = biological target: T3, hA2B AR (Homo sapiens, UniProt P29275); assay: cAMP assay in CHO cells expressing hA2B AR (stimulation of cAMP production); type: cell-based; conditions: for Emax at 1 µM: CHO, 1 µM compound, in comparison with NECA (1 µM = 100%), read-out: Efficacy hA2B (cAMP assay) (converted); for EC50: hA2B CHO cells, mean ± SEM of four assays
T3 construct: host or cells: CHO cells
T3 sequence (P29275 1-332): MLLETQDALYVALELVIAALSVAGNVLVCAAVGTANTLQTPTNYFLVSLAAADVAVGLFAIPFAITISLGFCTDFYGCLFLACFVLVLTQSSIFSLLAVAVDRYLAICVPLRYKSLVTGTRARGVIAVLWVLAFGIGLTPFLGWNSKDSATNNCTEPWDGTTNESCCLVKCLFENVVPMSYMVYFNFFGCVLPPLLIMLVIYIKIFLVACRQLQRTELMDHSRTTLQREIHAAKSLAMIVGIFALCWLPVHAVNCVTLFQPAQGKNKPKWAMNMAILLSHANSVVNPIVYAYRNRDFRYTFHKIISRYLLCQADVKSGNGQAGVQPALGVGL
Method: (§4) The amino-3,5-dicyanopyridines 1–21 were tested for their affinity at hA1, hA2A and hA3 ARs, stably transfected in Chinese Hamster Ovary (CHO) cells. Moreover, they were also studied as hA2B agonists by evaluating their stimulatory effect on cAMP production in CHO cells, stably expressing the hA2B AR. […] Due to their interesting pan profile, both compounds 1 and 5 were evaluated as AR agonists also at the hA2A and hA3 subtypes.
as §1
(§5) CHO cells transfected with hAR subtypes were washed with phosphate-buffered saline, detached with tripsine and centrifuged for 10 min at 200× g. Cells were seeded in a 96-well white half-area microplate (Perkin Elmer, Boston, USA) in a stimulation buffer composed of Hank Balanced Salt Solution, 5 mM HEPES, 0.5 mM Ro 20–1724, 0.1% BSA. The cAMP levels were then quantified by using the AlphaScreen cAMP Detection Kit (Perkin Elmer, Boston, MA, USA), following the manufacturer’s instructions. At the end of the experiments, the plates were read with a Perkin Elmer EnSight Multimode Plate Reader.

hA3AR = biological target: T4, hA3AR (Homo sapiens, UniProt P0DMS8); assay: Competition binding, [125I]AB-MECA, hA3 CHO cell membranes; conditions: for Ki: displacement of [125I]AB-MECA, hA3 CHO cells, mean ± SEM of four assays; for inhibition at 1 µM: 1 µM compound, [125I]AB-MECA binding, read-out: I% hA3 (percentage of inhibition)
T4 construct: host or cells: CHO cells
T4 sequence (P0DMS8 1-318): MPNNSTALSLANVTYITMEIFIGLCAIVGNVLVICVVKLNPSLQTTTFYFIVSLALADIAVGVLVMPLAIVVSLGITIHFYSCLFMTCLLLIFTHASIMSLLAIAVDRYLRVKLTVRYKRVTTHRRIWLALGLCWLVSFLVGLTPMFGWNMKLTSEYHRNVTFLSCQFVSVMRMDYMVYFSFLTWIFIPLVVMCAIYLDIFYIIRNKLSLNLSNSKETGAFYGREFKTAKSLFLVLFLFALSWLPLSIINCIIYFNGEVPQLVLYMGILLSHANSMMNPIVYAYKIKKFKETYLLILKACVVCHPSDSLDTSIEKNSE
Method: as §1, §2, §3

hA1AR [3] = biological target: T2, hA1AR; assay: Modulation of Forskolin-stimulated cAMP levels in hA1 CHO cells; type: cell-based; conditions: for IC50: footnote d, vs CCPA 10 nM; for hA1AR Efficacy: normalized: CCPA full agonist = 100%, DPCPX inverse agonist = −100%; for hA1AR Profile: pharmacological profile in cAMP assay
Method: as §4, §1, §5

hA2B AR [4] = biological target: T3, hA2B AR; set-up: method as in PMID 15239649; conditions: in comparison with NECA; ref [2]; cited from earlier work

T1 sequence (P29274 whole entry): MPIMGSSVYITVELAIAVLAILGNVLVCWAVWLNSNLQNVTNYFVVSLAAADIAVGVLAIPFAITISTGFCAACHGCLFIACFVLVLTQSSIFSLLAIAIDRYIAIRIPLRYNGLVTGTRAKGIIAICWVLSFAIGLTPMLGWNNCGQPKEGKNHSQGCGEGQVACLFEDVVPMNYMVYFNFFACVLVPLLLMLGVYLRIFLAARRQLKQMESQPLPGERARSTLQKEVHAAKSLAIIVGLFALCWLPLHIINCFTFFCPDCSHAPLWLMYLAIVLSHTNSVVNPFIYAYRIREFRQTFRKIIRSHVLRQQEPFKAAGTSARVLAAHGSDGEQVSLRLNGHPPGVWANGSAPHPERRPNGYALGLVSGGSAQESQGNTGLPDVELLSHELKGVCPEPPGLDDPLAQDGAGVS

Compound | Ki (hA2AAR) [nM] | Ki (hA1AR [1]) [nM] | Emax at 1 µM (hA2B AR [2]) [%] | EC50 (hA2B AR [2]) [nM] | melting point | Ki (hA3AR) [nM] | IC50 (hA1AR [3]) [nM] | hA1AR Efficacy (hA1AR [3]) [%] | hA1AR Profile (hA1AR [3]) | inhibition at 1 µM (hA3AR) [%] | inhibition at 1 µM (hA2AAR; 1 µM compound, [3H]ZM241385 binding, read-out: I% hA2A (percentage of inhibition)) [%] | EC50 (hA1AR [3]; footnote c, mean ± SEM of four experiments, read-out: hA1AR EC50 or IC50, potency to modulate Forskolin-stimulated cAMP levels) [nM] | Efficacy hA2B (cAMP assay) (hA2B AR [4]) [%]
Cl.N#Cc1c(N)nc(SCc2cnc[nH]2)c(C#N)c1-c1ccco1 [Compound 11, 2-Amino-4-(furan-2-yl)-6-[(1H-imidazol-5-ylmethyl)sulfanyl]pyridine-3,5-dicarbonitrile hydrochloride] | 442 ± 37 | 51 ± 4 | 4 | > 1000 | 147 to 148 °C | 849 ± 74 | 125 ± 11 | 0.82 ± 0.07 | Antagonist |  |  |  | 
N#Cc1c(N)nc(SCc2ncc[nH]2)c(C#N)c1-c1ccncc1 [Compound 7, 2-Amino-6-[(1H-imidazol-2-ylmethyl)sulfanyl]-4,4′-bipyridine-3,5-dicarbonitrile] | 81 ± 7 | 8.85 ± 0.82 | 36 | 12.5 ± 1.3 | 230 °C (dec.) |  |  |  |  | 26 |  |  | 
COc1ccc(-c2c(C#N)c(N)nc(SCc3ncc[nH]3)c2C#N)cn1 [Compound 9, 2′-Amino-6′-[(1H-imidazol-2-ylmethyl)sulfanyl]-6-methoxy-3,4′-bipyridine-3′,5′-dicarbonitrile] | 377 ± 32 | 2.71 ± 0.18 | 7 | > 1000 | 232 to 233 °C | 798 ± 72 |  |  |  |  |  |  | 
N#Cc1c(N)nc(SCc2ncc[nH]2)c(C#N)c1-c1ccsc1 [Compound 6, 2-Amino-6-[(1H-imidazol-2-ylmethyl)sulfanyl]-4-(thiophen-3-yl)pyridine-3,5-dicarbonitrile] | 55 ± 6 | 1.01 ± 0.09 | 47 | 3.15 ± 0.29 | 239 to 241 °C (dec.) | 221 ± 20 |  |  |  |  |  |  | 
N#Cc1c(N)nc(NCCc2c[nH]cn2)c(C#N)c1-c1ccco1 [Compound 13, 2-Amino-4-(furan-2-yl)-6-{[2-(1H-imidazol-4-yl)ethyl]amino}pyridine-3,5-dicarbonitrile] | 125 ± 10 | 174 ± 14 | 9 | > 1000 | 242 °C (dec.) |  |  |  |  | 6 |  |  | 
N#Cc1c(NC2CC2)nc(SCc2ncc[nH]2)c(C#N)c1-c1ccco1 [Compound 19] |  | 292 ± 26 | 13 | > 1000 | 241 to 242 °C |  |  |  |  | 18 | 1 |  | 
N#Cc1c(N)nc(NCc2ncc[nH]2)c(C#N)c1-c1ccco1 [Compound 12, 2-Amino-4-(furan-2-yl)-6-[(1H-imidazol-2-ylmethyl)amino]pyridine-3,5-dicarbonitrile] | 157 ± 14 | 315 ± 28 | 3 | > 1000 | 265 to 266 °C |  | 768 ± 67 | 1.31 ± 0.11 | Antagonist | 16 |  |  | 
N#Cc1c(N)nc(SCC(=O)NCCc2cnc[nH]2)c(C#N)c1-c1ccco1 [Compound 16, 2-{[6-Amino-3,5-dicyano-4-(furan-2-yl)pyridin-2-yl]sulfanyl}-N-[2-(1H-imidazol-5-yl)ethyl]acetamide] | 138 ± 11 | 30 ± 3 | 1 | > 1000 | 223 to 226 °C |  |  | −43 ± 4 | Inverse Agonist | 30 |  | 59 ± 4 | 
N#Cc1c(N)nc(SCc2ncc[nH]2)c(C#N)c1-c1ccccc1 [LUF5833, 2-amino-6-[(1H-imidazol-2-ylmethyl)sulfanyl]-4-phenylpyridine-3,5-dicarbonitrile] |  |  |  |  |  |  |  |  |  |  |  |  | 81
N#Cc1c(NC2CCCC2)nc(SCc2ncc[nH]2)c(C#N)c1-c1ccco1 [Compound 18] | 138 ± 11 | 393 ± 32 | 2 | > 1000 | 221 to 222 °C | 279 ± 21 |  |  |  |  |  |  | 
